Source: patent US7135477B2, “Heterocyclic compounds which inhibit leukocyte adhesion mediated by α4 integrins” (Elan Pharmaceuticals, Inc., priority 2002, dated 2006)

assay: Cassette dosing and serum analysis for determination of bioavailability; format: in vivo, rat; settings: male Sprague Dawley rats, oral cassette of 6 compounds as sodium salts, total dose 10 mg/kg, plasma at 4, 8 and 12 h, linear trapezoidal rule
Description: Cassette Dosing and Serum Analysis for Determination of Bioavailability
The cassette included 5 test articles and a standard compound, for a total dose of 10 mg/kg. Each compound/test article was converted to the sodium salt with equimolar 1 N NaOH and dissolved in water at 2 mg/mL. The cassette was prepared by mixing equal volumes of each of the six solutions. The cassette dosing solution was mixed well and then the pH was adjusted to 7.5–9. The dosing solution was prepared the day before the study and stirred overnight at room temperature.
Male Sprague Dawley (SD) rats from Charles River Laboratories, 6–8 weeks old were used in this screen. Rats were quarantined for at least one day and had continuous access to food and water. On the night before the administration of the cassette, the rats were fasted for approximately 16 h.
Four SD rats were assigned in each cassette. A single dose of the dosing solution was administered orally to each rat. The dosing volume (5 mL/kg) and time were recorded and rats were fed 2 h after dosing.
Blood samples were collected via cardiac puncture at the following time points: 4 h, 8 h and 12 h. Immediately prior to blood collection, rats were anesthetized with CO2 gas within 10–20 seconds. After the 12-h samples were collected, the rats were euthanized via CO2 asphyxiation followed by cervical dislocation.
Blood samples were kept in heparinized microtainer tubes under sub-ambient temperature (4° C.) before they were processed. Blood samples were centrifuged (10000 rpm for 5 minutes) and plasma samples were removed and stored in a −20° C. freezer until analyzed for drug levels. Drug levels in the plasma were analyzed using the following protocol for direct plasma precipitation.
The in vivo plasma samples were prepared in a 1.5 mL 96-well plate, by adding, in order, 100 μL of the test plasma, 150 μL of methanol, followed by vortexing for 10–20 seconds. 150 μL of 0.05 ng/μL of an Internal Standard in acetonitrile were added and vortexed for 30 seconds.
The standard curve samples were prepared in a 1.5 mL 96-well plate, by adding, in order, 100 μL of control mouse plasma, followed by 150 μL of methanol and vortexing for 10–20 seconds. 150 μL of 0.05 ng/μL of an Internal Standard in acetonitrile were added and vortexed for 30 seconds. The samples were spiked with 0–200 ng (10 concentrations) of the compound of interest in 50% methanol to obtain a standard curve range of 0.5 ng/mL–2,000 ng/mL. Again, the sample was vortexed for 30 seconds.
The samples were then spun for 20–30 minutes at 3000 rpm in an Eppendorf microfuge before 80–90% of supernatant was transferred into a clean 96-well plate. The organic solvent was then evaporated until the samples were dry (under N2 at 40° C./30–60 min (ZymarkTurbovap)).
The residue was then dissolved in […] mobile phase (50% CH3OH/0.1% TFA). LC/MS/MS was then run using a PE-Sciex API-3000 triple quadurpole mass spectrometer (SN0749707), Perkin-Elmer, Series200auto-sampler, and shimadzu 10A pump. Acquisition was done with PE-Sciex Analyst (v1.1) and data analysis and quantification were accomplished using PE-Sciex Analyst (v1.1). A 5–50 μL sample volume was injected onto a reverse phase ThermoHypersil DASH-18 column (Keystone 2.0×20 mm, 5 μm, PN: 8823025-701) using a mobile phase of 25% CH3OH, 0.1% TFA-100% CH3OH, 0.1% TFA. The run time was about 8 minutes at a flow rate of about 300 μL/minutes.
The Area Under the Curve (AUC) was calculated using the linear trapezoidal rule from t=0 to the last sampling time tx (see Handbook of Basic Pharmacokinetics, Wolfgang A. Ritschel and Gregory L. Kearns, 5th ed, 1999). AUC^0−tx=S((Cn+Cn+1)/2))·(tn+1−tn)[(μg/mL)h]

AUC (average AUC 0→12 h)	SMILES
14.818 (μg/mL)h	CCN(CC)c1ncc(N(C)S(=O)(=O)c2ccc(F)cc2F)c(N[C@@H](Cc2ccc(OC(=O)N3CCCC3)cc2)C(=O)O)n1 [Example 11, N-(2-[N′,N′-diethylamino]-5-[N″-(2,4-difluorophenylsulfonyl)-N″-methylamino]pyrimidin-4-yl)-4′-(pyrrolidin-1-ylcarbonyloxy)-L-phenylalanine]
4.7528 (μg/mL)h	C#CCN(c1cnc(N(CC)CC)nc1N[C@@H](Cc1ccc(OC(=O)N2CCC2)cc1)C(=O)O)S(=O)(=O)c1ccc(F)cc1 [Example 18, N-(2-[N′,N′-diethylamino]-5-[N″-(4-fluorophenylsulfonyl)-N″-propargylamino]pyrimidin-4-yl)-4′(azetidin-1-ylcarbonyloxy)-L-phenylalanine]
2.0774 (μg/mL)h	CCN(CC)c1ncc(N(C)S(=O)(=O)c2ccc(Cl)cc2)c(N[C@@H](Cc2ccc(OC(=O)N3CCC3)cc2)C(=O)O)n1 [Example 9, N-(2-[N′,N′-diethylamino]-5-[N″-(4-chlorophenylsulfonyl)-N″-methylamino]pyrimidin-4-yl)-4′-(azetidin-1-ylcarbonyloxy)-L-phenylalanine]
90.317 (μg/mL)h	C#CCN(c1cnc(N(CC)CC)nc1N[C@@H](Cc1ccc(OC(=O)N2CCCC2)cc1)C(=O)O)S(=O)(=O)c1ccc(F)cc1 [Example 15, N-(2-[N′,N′-diethylamino]-5-[N″-(4-fluorophenylsulfonyl)-N″-propargylamino]pyrimidin4-yl)-4′-(pyrrolidin-1-ylcarbonyloxy)-L-phenylalanine]
2.1654 (μg/mL)h	CCN(CC)c1ncc(N(C)S(=O)(=O)c2ccc(F)cc2)c(N[C@@H](Cc2ccc(OC(=O)N3CCCCC3)cc2)C(=O)O)n1 [Example 5, N-(2-[N′,N′-diethylamino]-5-[N″-(4-fluorophenylsulfonyl)-N″-methylamino]pyrimidin-4-yl)-4′-(piperidin-1-ylcarbonyloxy)-L-phenylalanine]
22.271 (μg/mL)h	CCN(CC)c1ncc(N(C)S(=O)(=O)c2ccc(F)cc2)c(N[C@@H](Cc2ccc(OC(=O)N3CCCC3)cc2)C(=O)O)n1 [Example 3, N-(2-[N′,N′-diethylamino]-5-[N″-(4-fluorophenylsulfonyl)-N″-methylamino]pyrimidin-4-yl)-4′-(pyrrolidin-1-ylcarbonyloxy)-L-phenylalanine]
4.7816 (μg/mL)h	CCN(CC)c1ncc(N(CC)S(=O)(=O)c2ccc(F)cc2F)c(N[C@@H](Cc2ccc(OC(=O)N3CCCC3)cc2)C(=O)O)n1 [Example 12, N-(2-[N′,N′-diethylamino]-5-[N″-(2,4-difluorophenylsulfonyl)-N″-ethylamino]pyrimidin-4-yl)-4′-(pyrrolidin-1-ylcarbonyloxy)-L-phenylalanine]
0.8628 (μg/mL)h	C#CCN(c1cnc(N(CC)CC)nc1N[C@@H](Cc1ccc(OC(=O)N2CCC2)cc1)C(=O)O)S(=O)(=O)c1ccc(F)cc1F [Example 17, N-(2-[N′,N′-diethylamino]-5-[N″-(2,4-difluorophenylsulfonyl)-N″-propargylamino]pyrimidin-4-yl)-4′-(azetidin-1-ylcarbonyloxy)-L-phenylalanine]
23.808 (μg/mL)h	C#CCN(c1cnc(N(CC)CC)nc1N[C@@H](Cc1ccc(OC(=O)N2CCCC2)cc1)C(=O)O)S(=O)(=O)c1ccc(F)cc1F [Example 16, N-(2-[N′,N′-diethylamino]-5-[N″-(2,4-difluorophenylsulfonyl)-N″-propargylamino]pyrimidin-4-yl)-4′-(pyrrolidin-1-ylcarbonyloxy)-L-phenylalanine]
0.3566 (μg/mL)h	CCN(CC)c1ncc(N(CC)S(=O)(=O)c2ccc(F)cc2F)c(N[C@@H](Cc2ccc(OC(=O)N3CCC3)cc2)C(=O)O)n1 [Example 14, N-(2-[N′N′-diethylamino]-5-[N″-(2,4-difluorophenylsulfonyl)-N″ethylamino]pyrimidin-4-yl)-4′-(azetidin-1-ylcarbonyloxy)-L-phenylalanine]
0.8979 (μg/mL)h	CCN(CC)c1ncc(N(CC)S(=O)(=O)c2ccc(F)cc2)c(N[C@@H](Cc2ccc(OC(=O)N3CCC3)cc2)C(=O)O)n1 [Example 7, N-(2-[N′,N′-diethylamino]-5-[N″-(4-fluorophenylsulfonyl)-N″-ethylamino]pyrimidin-4-yl)-4-(azetidin-1-ylcarbonyloxy)-L-phenylalanine]
14.798 (μg/mL)h	CCN(CC)c1ncc(N(CC)S(=O)(=O)c2ccc(Cl)cc2)c(N[C@@H](Cc2ccc(OC(=O)N3CCCC3)cc2)C(=O)O)n1 [Example 1, N-(2-[N′,N′-diethylamino]-5-[N″-(4-chlorophenylsulfonyl)-N″-ethylamino]pyrimidin-4-yl)-4′-(pyrrolidin-1-ylcarbonyloxy)-L-phenylalanine]
15.971 (μg/mL)h	CCN(CC)c1ncc(N(CC)S(=O)(=O)c2ccc(F)cc2)c(N[C@@H](Cc2ccc(OC(=O)N3CCCC3)cc2)C(=O)O)n1 [Example 2, N-(2-[N′,N′-diethylamino]-5-[N″-(4-fluorophenylsulfonyl)-N″-ethylamino]pyrimidin-4-yl)-4′-(pyrrolidin 1-ylcarbonyloxy)-L-phenylalanine]
2.1113 (μg/mL)h	CCN(CC)c1ncc(N(CC)S(=O)(=O)c2ccc(Cl)cc2)c(N[C@@H](Cc2ccc(OC(=O)N3CCC3)cc2)C(=O)O)n1 [Example 10, N-(2-[N′,N′-diethylamino]-5-[N″-(4-chlorophenylsulfonyl)-N″-ethylamino]pyrimidin-4-yl)-4′-(azetidin-1-ylcarbonyloxy)-L-phenylalanine]
13.829 (μg/mL)h	CCN(CC)c1ncc(N(C)S(=O)(=O)c2ccc(Cl)cc2)c(N[C@@H](Cc2ccc(OC(=O)N3CCCC3)cc2)C(=O)O)n1 [Example 4]
2.4082 (μg/mL)h	CCN(CC)c1ncc(N(C)S(=O)(=O)c2ccc(F)cc2)c(N[C@@H](Cc2ccc(OC(=O)N3CCC3)cc2)C(=O)O)n1 [Example 8, N-(2-[N′,N′-diethylamino]-5-[N″-(4-fluorophenylsulfonyl)-N″-methylamino]pyrimidin-4-yl)-4′-(azetidin-1-ylcarbonyloxy)-L-phenylalanine]
0.5125 (μg/mL)h	CCN(CC)c1ncc(N(CC)S(=O)(=O)c2ccc(F)cc2)c(N[C@@H](Cc2ccc(OC(=O)N3CCCCC3)cc2)C(=O)O)n1 [Example 6, N-(2-[N′,N′-diethylamino]-5-[N″-(4-fluorophenylsulfonyl)-N″-ethylamino]pyrimidin-4-yl)-4′-(piperidin-1-ylcarbonyloxy)-L-phenylalanine]
1.283 (μg/mL)h	CCN(CC)c1ncc(N(C)S(=O)(=O)c2ccc(F)cc2F)c(N[C@@H](Cc2ccc(OC(=O)N3CCC3)cc2)C(=O)O)n1 [Example 13, N-(2-[N′,N′-diethylamino]-5-[N″-(2,4-difluorophenylsulfonyl)-N″-methylamino]pyrimidin-4-yl)-4′-(azetidin-1-ylcarbonyloxy)-L-phenylalanine]
